Key:
[1] = test system: hair growth on clipped dorsal skin of female CD-1 mice; assay: Hair regrowth on clipped dorsal skin of mice after twice-weekly topical treatment; format: in vivo, mouse; conditions: for effect on hair growth (figure legend): 10 nmol in 200 μL acetone applied topically to clipped hair area, mice; for mice demonstrating partial patchy hair regrowth: 10 nmol topically twice weekly from 6th week; for hair growth in pre-existing anagen follicles: 10 week old mice in anagen phase, twice weekly topical
Method: Female CD-1 mice, 4, 5, or 9 weeks of age, were purchased from Charles River Laboratories, Raleigh, N.C. Mice were kept in an animal facility at least 1 week prior to use and were fed rodent chow (Agway Food, Granville Milling and Co., Creedmoor, N.C.) and water ad libitum. The mice were kept on corn cob bedding and placed on a 12 hour light/dark cycle. Female CD-1 mice were clipped on the dorsal region (approximately 4×2.5 cm area) with electric clippers. The mice were then treated twice weekly on the clipped dorsal surface with either (a) 10 nmol 17-β-estradiol in 200 μl acetone or (b) acetone alone. For the studies with the estrogen receptor antagonist, ICI 182,780 was dissolved in acetone and 200 μl was topically applied twice weekly. Mice were treated with the estrogen receptor antagonist ICI 182,780 as provided in Example 1. Twice-weekly treatment of clipped dorsal skin was begun when the mice were 6 weeks of age, with either (a) 10 nmol ICI 182,780 in acetone or (b) acetone alone. […] In order to determine if 17-β-estradiol could influence hair growth, six week old CD-1 female mice were clipped on the dorsal surface with electric clippers and then treated twice weekly from the 6th week of age to the 16th week of age with topical applications of either (a) 10 nmol 17-β-estradiol or (b) acetone vehicle alone. […] In order to determine if 17-β-estradiol could block hair growth in pre-existing anagen follicles, 10 week old mice in the anagen phase of the hair cycle were treated twice weekly with 17-β-estradiol applied topically to clipped dorsal skin.

[2] = test system: hair follicles of female CD-1 mice; assay: Histological analysis of skin to determine the phase of the hair cycle; format: in vivo, mouse
Method: Female CD-1 mice, 4, 5, or 9 weeks of age, were purchased from Charles River Laboratories, Raleigh, N.C. Mice were kept in an animal facility at least 1 week prior to use and were fed rodent chow (Agway Food, Granville Milling and Co., Creedmoor, N.C.) and water ad libitum. The mice were kept on corn cob bedding and placed on a 12 hour light/dark cycle. Female CD-1 mice were clipped on the dorsal region (approximately 4×2.5 cm area) with electric clippers. The mice were then treated twice weekly on the clipped dorsal surface with either (a) 10 nmol 17-β-estradiol in 200 μl acetone or (b) acetone alone. For the studies with the estrogen receptor antagonist, ICI 182,780 was dissolved in acetone and 200 μl was topically applied twice weekly. […] To determine the effect of 17-β-estradiol on the hair follicle cycle, mice were treated with 17-β-estradiol or acetone alone twice weekly from the 4th week of age to the 15th week of age. Every week, histological analysis of the skin from 3 mice from each group was conducted to determine the phase of the hair cycle. Representative skin histology sections from acetone- and 17-β-estradiol-treated mice at 7, 9, and 11 weeks of age are shown in FIGS. 6A-6F. As expected, at 7 weeks of age all follicles were in telogen in both the 17-β-estradiol and the acetone-treated mice.

Structure (SMILES)	effect on hair growth (figure legend) [1]	effect on dorsal hair regrowth ([1]; 10 nmol topically twice weekly from 6th to 16th week of age)	full hair regrowth ([1]; 10 nmol topically twice weekly from 6th to 16th week of age, by 16 weeks of age, 100% of acetone mice regrown by 13 weeks)	partial patchy hair regrowth, share of total clipped area ([1]; 10 nmol topically twice weekly from 6th to 16th week of age, some of the treated mice)	mice demonstrating partial patchy hair regrowth ([1]; at 12 weeks of age)	mice demonstrating partial patchy hair regrowth ([1]; by 15 weeks)	hair growth in pre-existing anagen follicles ([1]; treatment continued for 10 weeks)	hair growth in pre-existing anagen follicles ([1]; within two weeks, all acetone mice developed full coat)	hair follicle phase ([2]; 17-β-estradiol twice weekly from 4th week of age, 15 weeks of age, termination of experiment)	hair follicle phase ([2]; 17-β-estradiol twice weekly from 4th week of age, at 7 weeks of age, acetone mice also in telogen)	hair follicle phase ([2]; 17-β-estradiol twice weekly from 4th week of age, by 9 weeks of age, acetone mice entered anagen)	hair follicle phase ([2]; 17-β-estradiol twice weekly from 4th week of age, by 11 weeks of age, acetone mice in mid to late anagen)	mice demonstrating full hair regrowth ([1]; 10 nmol in acetone topically twice weekly from 6 weeks of age, by 9 weeks of age, no hair growth in acetone-treated mice)	mice that developed a full coat of hair ([1]; 10 nmol in acetone topically twice weekly from 6 weeks of age, by 10 weeks of age, 40% of acetone-treated mice)	hair follicle phase ([2]; 10 nmol ICI 182,780 twice weekly from 6 weeks, at 7 weeks of age, acetone mice in second telogen)	hair follicle phase ([2]; 10 nmol ICI 182,780 twice weekly from 6 weeks, at eleven weeks of age, control mice in mid to late anagen)	hair follicle phase ([2]; 10 nmol ICI 182,780 twice weekly from 6 weeks, by eight weeks of age, acetone mice in telogen)	effect on duration of anagen ([2]; conclusion from histology at eleven weeks of age)
C[C@]12CC[C@@H]3c4ccc(O)cc4CC[C@H]3[C@@H]1CC[C@@H]2O [17-β-estradiol]	blocks hair regrowth	potent inhibitory effect	did not demonstrate any full hair regrowth	less than 10%	20%	40%	no hair growth was apparent	no longer growing hair	still arrested in telogen	telogen	remained in telogen	remained in telogen	–	–	–	–	–	–
C[C@]12CC[C@@H]3c4ccc(O)cc4C[C@@H](CCCCCCCCC[S+]([O-])CCCC(F)(F)C(F)(F)F)[C@H]3[C@@H]1CC[C@@H]2O (stereo partly drawn) [ICI 182,780, 7α-[9-(4,4,5,5,5,-pentafluoropentylsulfinyl)nonyl]estra-1,3,5(10)-triene-3,17β-diol]	causes hair growth during the second telogen phase	–	–	–	–	–	–	–	–	–	–	–	60%	all	early to mid anagen	entered telogen	mid to late anagen	does not prolong anagen

— patent US6555532B1, “Method of treating alopecia” (North Carolina State University, priority 1996, dated 2003)
